According to patent US12590106B2, “Spiromacrocyclic orexin 2 receptor agonists” (H. Lundbeck A/S, priority 2023, dated 2026):
Like-named read-outs stand apart in the source and are kept apart here.

Molecular target: T1, human Ox2R (Homo sapiens, UniProt O43614)
T1 construct: The gene encoding hOx2R was subcloned into the expression plasmid pcDNA5/FRT/TO; expressed in transfected cells; host or cells: CHO Flp-In cells (pcDNA5/FRT/TO with pOG44 Flp recombinase vector, hygromycin B selection)
T1 sequence (O43614 1-444): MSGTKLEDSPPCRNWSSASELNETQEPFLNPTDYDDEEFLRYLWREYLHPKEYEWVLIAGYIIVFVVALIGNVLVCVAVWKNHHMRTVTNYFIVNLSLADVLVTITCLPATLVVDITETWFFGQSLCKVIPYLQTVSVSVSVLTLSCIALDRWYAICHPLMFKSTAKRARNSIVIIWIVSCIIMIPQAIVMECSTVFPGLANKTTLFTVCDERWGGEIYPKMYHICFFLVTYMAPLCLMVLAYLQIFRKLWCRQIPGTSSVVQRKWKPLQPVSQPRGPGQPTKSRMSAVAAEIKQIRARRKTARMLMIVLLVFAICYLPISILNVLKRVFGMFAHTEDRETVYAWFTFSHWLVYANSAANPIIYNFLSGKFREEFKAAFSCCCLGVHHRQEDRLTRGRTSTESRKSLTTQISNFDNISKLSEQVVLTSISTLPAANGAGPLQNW
Experiment: Measurement of OX2R agonist activity (cell-based calcium release assay)
Settings: for EC50: intracellular calcium
From the text: Measurement of OX2R Agonist Activity
The Ox2R has a broad signaling profile and couple to a range of different Gα-proteins. The cell-based calcium release assay is primarily assessing signaling through the Gαq signaling pathway, which promotes calcium mobilization via inositol triphosphate production upon activation of Ox2R.
A CHO Flp-In cell-line stably expressing the human Ox2R (hOx2R-CHO Flp-In) was established as follows: The gene encoding hOx2R was subcloned into the expression plasmid pcDNA5/FRT/TO and then transfected into CHO Flp-In cells together with the Flp recombinase vector, pOG44. Cells were cultured in growth medium: Ham's F12 (Gibco), 10% fetal bovine serum (Gibco) and 100 U/mL penicillin-streptomycin (Gibco) supplemented with hygromycin B (Thermo Fisher Scientific) as selection marker at 37° C. in the presence of 5% CO2.
To prepare the hOx2R-CHO FlpIn cells for calcium release assay, the cells were suspended in growth medium and seeded in black, clear-bottomed 384-well plates (Corning) at 10,000 cells/well. The plated cells were grown overnight at 37° C. and 5% CO2. The following day, the media was removed, and the cells were incubated with assay buffer (HBSS with 20 mM HEPES, pH 7.4) containing 2.5 mM probenecid (Thermo Fisher Scientific), 10 mM CaCl2, 0.1% pluronic F68 (Gibco) and 1× calcium-4 dye (Molecular Devices) for 1 h at 37° C. and 5% CO2. After incubation, cells were allowed to equilibrate at room temperature for 15 minutes and then loaded into FDSS7000Ex system (Hamamatsu Photonics) together with a plate containing test compounds serially diluted in assay buffer. Cells were stimulated with test compounds (online injection) and the agonist activity was determined as an increase in intracellular calcium concentration measured from the ratio of fluorescence emission at 542 nm by excitation at 480 nm. The agonist response for each applied concentration was assessed as the ratio: maximum fluorescence/average pre-stimulated fluorescence and was normalized to responses from assay buffer alone (0% response) and 10 μM Danavorexton (100% response). EC50 and Emax values were calculated from concentration-response curves by using Genedata Screener software.

[1] = hOx2R-CHO Flp-In cells, n≥2 tests, read-out: EC50
[2] = hOx2R-CHO Flp-In cells, normalized to assay buffer (0%) and 10 μM Danavorexton (100%), n≥2 tests, read-out: Emax (%)

Row | SMILES | EC50 [1] [nM] | Emax [2] [%] | Emax (%) (hOx2R-CHO Flp-In cells, normalized to assay buffer (0%) and 10 μM Danavorexton (100%), n≥2 tests) | Emax [%] | EC50 (EC50 (nM), hOx2R-CHO Flp-In cells, n≥2 tests) [nM]
1 | CS(=O)(=O)NC1CCC2(C1)c1nc(co1)COc1c(F)cccc1-c1cc(ccc1F)C2F (single isomer, unassigned) [Example 77, N-[(1′S,14R,15S or 15R)-6,15,19-trifluorospiro[8,12-dioxa-21-azatetracyclo[14.3.1.110,13.02,7]henicosa-1(19),2,4,6,10,13(21),16(20),17-octaene-14,3′-cyclopentane]-1′-yl]methanesulfonamide] | 1.4 | 99 |  |  | 
2 | CS(=O)(=O)NC1CCC2(C1)c1nc(co1)COc1c(F)cccc1-c1cc(ccc1F)C2F (single isomer, unassigned) [Example 78, N-[(1′S,14R,15S or 15R)-6,15,19-trifluorospiro[8,12-dioxa-21-azatetracyclo[14.3.1.110,13.02,7]henicosa-1(19),2,4,6,10,13(21),16(20),17-octaene-14,3′-cyclopentane]-1′-yl]methanesulfonamide] | 0.17 |  | 95 |  | 
3 | CC1Oc2ccccc2-c2cccc(c2)C[C@@]2(CC[C@H](NS(C)(=O)=O)C2)c2nccc1n2 (single isomer, unassigned) [Example 88, N-[(1′S,9R*,15R)-9-methylspiro[8-oxa-13,22-diazatetracyclo[15.3.1.110,14.02,7]docosa-1(21),2,4,6,10,12,14(22),17,19-nonaene-15,3′-cyclopentane]-1′-yl]methanesulfonamide] | 1600 | 88 |  |  | 
4 | C[C@@H]1Oc2ccccc2-c2cccc(c2)C[C@@]2(CC[C@H](NS(C)(=O)=O)C2)c2nccc1n2 (single isomer, unassigned) [Example 89, N-[(1′S,9S*,15R)-9-methylspiro[8-oxa-13,22-diazatetracyclo[15.3.1.110,14.02,7]docosa-1(21),2,4,6,10,12,14(22),17,19-nonaene-15,3′-cyclopentane]-1′-yl]methanesulfonamide] | 3.7 | 110 |  |  | 
5 | C[C@H]1C[C@H](NS(C)(=O)=O)C[C@]12Cc1ccc(F)c(c1)-c1cccc(F)c1OCc1ccnc2n1 (single isomer, unassigned) [Example 94, N-[(1′S,4′S,15R)-6,20-difluoro-4′-methyl-spiro[8-oxa-13,22-diazatetracyclo[15.3.1.110,14.02,7]docosa-1(20),2,4,6,10,12,14(22),17(21),18-nonaene-15,3′-cyclopentane]-1′-yl]methanesulfonamide or N-[(1′R,4′R,15S)-6,20-difluoro-4′-methyl-spiro[8-oxa-13,22-diazatetracyclo[15.3.1.110,14.02,7]docosa-1(20),2,4,6,10,12,14(22),17(21),18-nonaene-15,3′-cyclopentane]-1′-yl]methanesulfonamide] |  |  |  | 94 | 6.7
6 | CS(=O)(=O)N[C@H]1CC[C@@]2(CO[C@H]3CC[C@H](CC3)c3nccc(n3)OCc3coc2n3)C1 [Example 1, N-[(1s,1′S,13S,16s)-spiro[7,11,15-trioxa-3,21,22-triazatetracyclo[14.2.2.12,6.19,12]docosa-2,4,6(22),9,12(21)-pentaene-13,3′-cyclopentane]-1′-yl]methanesulfonamide] | 9.7 | 98 |  |  | 
7 | CS(=O)(=O)N[C@H]1CC[C@@]2(CO[C@H]3CC[C@H](CC3)c3ccccc3OCc3coc2n3)C1 [Example 2, N-[(1s,1′S,14R,17s)-spiro[8,12,16-trioxa-22-azatetracyclo[15.2.2.110,13.02,7]docosa-2,4,6,10,13(22)-pentaene-14,3′-cyclopentane]-1′-yl]methanesulfonamide] | 0.43 | 99 |  |  | 
8 | C[C@@H]1Oc2c(F)cccc2-c2cc(ccc2F)C[C@@]2(CC[C@H](NS(C)(=O)=O)C2)c2nc1co2 [Example 3, N-[(1′S,9S,14R)-6,19-difluoro-9-methyl-spiro[8,12-dioxa-21-azatetracyclo[14.3.1.110,13.02,7]henicosa-1(19),2(7),3,5,10,13(21),16(20),17-octaene-14,3′-cyclopentane]-1′-yl]methanesulfonamide] | 0.97 | 99 |  |  | 
9 | CS(=O)(=O)N[C@H]1CC[C@@]2(Cc3cccc(c3)-c3cccc(n3)OCCc3coc2n3)C1 [Example 4, N-[(1′S,8R)-spiro[10,15-dioxa-20,21-diazatetracyclo[14.3.1.12,6.19,12]docosa-1(19),2(22),3,5,9(21),11,16(20),17-octaene-8,3′-cyclopentane]-1′-yl]methanesulfonamide] | 330 | 100 |  |  | 
10 | [2H]C1([2H])Oc2ccccc2-c2cc(ccc2F)C[C@@]2(CC[C@H](NS(C)(=O)=O)C2)c2nc1co2 [Example 5, N-[(1′S,14R)-9,9-dideuterio-19-fluoro-spiro[8,12-dioxa-21-azatetracyclo[14.3.1.110,13.02,7]henicosa-1(19),2,4,6,10,13(21),16(20),17-octaene-14,3′-cyclopentane]-1′-yl]methanesulfonamide] | 0.36 | 100 |  |  | 
11 | [2H]C1([2H])Oc2c(F)cccc2-c2cc(ccc2F)C[C@@]2(CC[C@H](NS(C)(=O)=O)C2)c2nc1co2 [Example 6, N-[(1′S,14R)-9,9-dideuterio-6,19-difluoro-spiro[8,12-dioxa-21-azatetracyclo[14.3.1.110,13.02,7]henicosa-1(19),2,4,6,10,13(21),16(20),17-octaene-14,3′-cyclopentane]-1′-yl]methanesulfonamide] | 0.11 | 100 |  |  | 
12 | CS(=O)(=O)N[C@H]1CC[C@@]2(Cc3ccc(F)c(c3)-c3cccc(F)c3OCC3=CN=C2O3)C1 [Example 7, N-[(1′S,14R)-6,19-difluorospiro[8,21-dioxa-12-azatetracyclo[14.3.1.110,13.02,7]henicosa-1(19),2,4,6,10,12,16(20),17-octaene-14,3′-cyclopentane]-1′-yl]methanesulfonamide] | 21 | 99 |  |  | 
13 | CS(=O)(=O)N[C@H]1CC[C@@]2(Cc3cccc(c3)-c3cccnc3OCc3coc2n3)C1 [Example 9, N-[(1′S,14R)-spiro[8,12-dioxa-6,21-diazatetracyclo[14.3.1.110,13.02,7]henicosa-1(20),2,4,6,10,13(21),16,18-octaene-14,3′-cyclopentane]-1′-yl]methanesulfonamide] | 10 | 98 |  |  | 
14 | CS(=O)(=O)N[C@H]1CC[C@@]2(Cc3cc(ccc3F)-c3ccccc3OCc3coc2n3)C1 [Example 10, N-[(1′S,14R)-17-fluorospiro[8,12-dioxa-21-azatetracyclo[14.3.1.110,13.02,7]henicosa-1(19),2,4,6,10,13(21),16(20),17-octaene-14,3′-cyclopentane]-1′-yl]methanesulfonamide] | 1.5 | 100 |  |  | 
15 | CCS(=O)(=O)N[C@H]1CC[C@@]2(Cc3ccc(F)c(c3)-c3ccccc3OCc3coc2n3)C1 [Example 11, N-[(1′S,14R)-19-fluorospiro[8,12-dioxa-21-azatetracyclo[14.3.1.110,13.02,7]henicosa-1(19),2,4,6,10,13(21),16(20),17-octaene-14,3′-cyclopentane]-1′-yl]ethanesulfonamide] | 0.68 | 97 |  |  | 
16 | CNS(=O)(=O)N[C@H]1CC[C@@]2(Cc3ccc(F)c(c3)-c3ccccc3OCc3coc2n3)C1 [Example 12, (1′S,14R)-19-fluoro-N-(methylsulfamoyl)spiro[8,12-dioxa-21-azatetracyclo[14.3.1.110,13.02,7]henicosa-1(19),2,4,6,10,13(21),16(20),17-octaene-14,3′-cyclopentane]-1′-amine] | 0.19 | 100 |  |  | 
